Measured values published in patent US8865741B2, “Aminoindane compounds and use thereof in treating pain” (Asana Biosciences, LLC, priority 2011, dated 2014).

Key:
[1] = system: sodium channel in hTRPV1-N1E115 cells; experiment: FLIPR membrane potential assay of sodium channel response in hTRPV1-N1E115 cells, with (47° C.) or without (25° C.) heat activation of hTRPV1; assay type: cell-based; details: for hTRPV1-N1E Nav 0.1 mM (% inhibition) 25° C. / hTRPV1-N1E Nav 1 mM (% inhibition) 25° C.: 25° C. (no heat activation of hTRPV1); for hTRPV1-N1E Nav 0.1 mM (% inhibition) 47° C. / hTRPV1-N1E Nav 1 mM (% inhibition) 47° C.: 47° C. (heat activation of hTRPV1); for IC50: 47° C., class symbols, read-out: hTRPV1-N1E IC50 (μM) 47° C.
From the text: In one embodiment, a modified FLIPR® (Fluorometric Imaging Plate Reader) based assay system was developed which is capable of discriminating between non-specific versus hTRPV1-mediated entry of test compounds. Advantageously, the assay system utilizes heat activated opening of hTRPV1 channels followed by an assessment of internal sodium channel block. The assay allows a permanently charged compound to selectively enter through opened hTRPV1 channels and that compound's potency in inhibiting sodium channels from the cytoplasm side of the same cell can be assessed and quantified.
The assay is readily performed in multi-well assay plates into which cells in growth media are added and incubated under conditions which permit the formation of a confluent monolayer over a period of hours prior to the start of the assay. Conventional culture media and conditions may be utilized. Duplicate cell assay plates are prepared for each experiment.
The spent media from the cell seeded plates is removed on the day of the assay and replaced with Membrane potential Dye-Blue (Molecular Devices). The dye was prepared in assay buffer following manufacturer's instructions. The dye-loaded plate is incubated at room temperature (about 25° C.) for about 30 minutes in order to pre-load the cells with dye. Optionally, the cells may be loaded with the dye simultaneously with adding the test compounds.
The test compounds are diluted in the Assay Buffer and added to each well of a specific 384-well ‘compound plate’, which serves as a source plate for compound addition using the FLIPR® platform. The concentration of compounds in the compound-plate was adjusted to achieve the desired final concentration when added to the cells in the ‘cell-plate’. After completion of the dye incubation period, the dye loaded cell-plates and the compound source plates are inserted into the FLIPR® Tetra™ device with a 384 FLIPR® tip box (Molecular Devices, Inc.) according to manufacturer's instructions. The compounds are robotically added to the dye loaded cell-plates using software integral to the FLIPR® Tetra™ instrument.
Immediately following compound addition, hTRPV1 is activated, in one of the duplicate cell plates, by heating. Specifically, entire multi-well plate containing the compound-cells mixture is incubated at 47° C. for 10 minutes, after which they are returned to room temperature (about 25° C.) for a further 30 minutes. Heat activation of hTRPV1 was omitted from the replicate cell plate which was simply maintained at room temperature for the entire 40 minutes.
A membrane potential response is elicited in the dye- and compound-loaded cells by the addition of veratridine which is a known sodium channel ‘agonist’. As illustrated in an example herein, an agonist plate containing veratridine (Sigma) is prepared in advance and is inserted into suitable devices such as, e.g., the FLIPR® TETRA® device for a “2nd addition” as instructed by the manufacturer. The concentration of veratridine in the ‘agonist plate’ was adjusted to achieve a final concentration of 100 μM when added to the cells in the cell-plate. Final concentrations of veratridine greater or lesser than 100 μM may also be used but the signal measured by the FLIPR®^Tetra™ device or another suitable device may vary accordingly.
The exposure of the cells in the cell-plate to veratridine induces sodium channels in the cells to open and the resulting ion flux produces a membrane potential depolarization that is detected as a fluorescence signal by the FLIPR® ^Tetra™ Device. The activity of test compounds is determined by their ability to attenuate the veratridine-induced fluorescence signal, the most promising compounds are those that show an enhanced activity in the heat-activated cell plate over the non-heat-activated cell plate. […]

[2] = target: T1, human Nav1.5 sodium channel (Homo sapiens, UniProt Q14524); experiment: Inhibition of sodium channel response in hNav1.5-HEK293 cells (FLIPR, veratridine); assay type: cell-based
T1 construct: host or cells: HEK-293
T1 sequence (Q14524 whole entry): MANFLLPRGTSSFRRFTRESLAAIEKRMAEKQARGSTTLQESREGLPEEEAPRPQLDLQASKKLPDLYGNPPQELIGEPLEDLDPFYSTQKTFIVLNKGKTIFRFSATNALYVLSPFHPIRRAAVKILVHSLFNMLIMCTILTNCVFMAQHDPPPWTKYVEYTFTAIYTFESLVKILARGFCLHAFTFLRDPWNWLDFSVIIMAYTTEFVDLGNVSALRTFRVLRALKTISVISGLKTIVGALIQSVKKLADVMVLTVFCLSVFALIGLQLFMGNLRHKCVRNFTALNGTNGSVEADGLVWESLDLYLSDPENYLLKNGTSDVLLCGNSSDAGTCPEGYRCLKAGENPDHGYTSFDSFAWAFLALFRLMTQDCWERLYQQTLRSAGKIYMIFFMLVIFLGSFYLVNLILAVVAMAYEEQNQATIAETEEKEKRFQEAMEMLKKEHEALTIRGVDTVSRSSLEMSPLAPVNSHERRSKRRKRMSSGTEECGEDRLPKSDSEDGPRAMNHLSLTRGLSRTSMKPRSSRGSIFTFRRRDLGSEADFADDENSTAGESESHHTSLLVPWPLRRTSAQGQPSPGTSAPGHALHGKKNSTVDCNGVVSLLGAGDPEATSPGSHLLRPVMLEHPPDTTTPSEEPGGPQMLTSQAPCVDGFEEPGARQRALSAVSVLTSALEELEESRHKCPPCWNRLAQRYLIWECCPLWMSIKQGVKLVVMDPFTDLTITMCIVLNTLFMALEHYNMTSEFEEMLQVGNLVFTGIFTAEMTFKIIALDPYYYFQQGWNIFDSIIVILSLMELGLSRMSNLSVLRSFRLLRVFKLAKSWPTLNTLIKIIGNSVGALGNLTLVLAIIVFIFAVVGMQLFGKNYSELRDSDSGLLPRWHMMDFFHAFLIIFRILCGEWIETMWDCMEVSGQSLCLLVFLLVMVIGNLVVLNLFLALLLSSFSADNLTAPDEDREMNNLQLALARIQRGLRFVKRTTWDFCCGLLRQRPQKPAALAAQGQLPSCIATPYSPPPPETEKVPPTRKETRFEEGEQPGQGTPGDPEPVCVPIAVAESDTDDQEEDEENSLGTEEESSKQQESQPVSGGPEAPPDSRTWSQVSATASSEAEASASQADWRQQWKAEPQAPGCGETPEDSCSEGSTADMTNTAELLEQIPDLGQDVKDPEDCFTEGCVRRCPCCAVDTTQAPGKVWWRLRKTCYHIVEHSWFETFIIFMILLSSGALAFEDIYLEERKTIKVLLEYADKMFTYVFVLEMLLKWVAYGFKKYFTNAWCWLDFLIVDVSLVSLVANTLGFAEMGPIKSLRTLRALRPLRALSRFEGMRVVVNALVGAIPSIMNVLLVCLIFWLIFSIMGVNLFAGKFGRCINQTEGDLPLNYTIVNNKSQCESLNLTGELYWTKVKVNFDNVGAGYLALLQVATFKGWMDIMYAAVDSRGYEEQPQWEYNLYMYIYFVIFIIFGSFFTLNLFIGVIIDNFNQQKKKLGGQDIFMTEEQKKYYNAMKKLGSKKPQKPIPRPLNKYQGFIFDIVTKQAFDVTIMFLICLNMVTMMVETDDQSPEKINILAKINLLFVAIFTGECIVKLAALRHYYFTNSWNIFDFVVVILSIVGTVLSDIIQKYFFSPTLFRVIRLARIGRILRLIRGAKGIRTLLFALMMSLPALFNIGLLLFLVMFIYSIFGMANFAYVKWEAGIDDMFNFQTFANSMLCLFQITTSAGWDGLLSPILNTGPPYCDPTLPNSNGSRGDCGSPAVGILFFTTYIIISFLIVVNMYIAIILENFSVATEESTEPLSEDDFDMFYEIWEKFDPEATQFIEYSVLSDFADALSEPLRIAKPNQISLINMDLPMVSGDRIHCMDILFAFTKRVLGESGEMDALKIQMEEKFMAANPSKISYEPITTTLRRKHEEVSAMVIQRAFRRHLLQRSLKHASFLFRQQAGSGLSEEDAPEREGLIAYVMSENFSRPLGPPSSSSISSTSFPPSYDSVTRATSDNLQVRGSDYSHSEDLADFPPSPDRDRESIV
Description: C. Method for Assessing the Extent of Inhibition of Sodium Channel Response with Compounds in hNav1.5-HEK293 Cells.
The following assay was used to assess the tendency of the test compounds to block the dominant cardiac sodium channel isoform. Nav1.5 sodium channels are known to be permeable to quaternary sodium channel blockers such as QX-314 and, thus, the assay was performed in the absence of a chemical TRPV1 agonist.
The hNav1.5-HEK-293 cells (CreaCell, France, a human embryonic kidney cell line expressing the human Nav1.5 sodium channel) were cultured in Growth medium (containing 1×DMEM (Gibco)+10% FBS (PAA Gold)+2% Glutamine 100 mM (Gibco)+1% penicillin 10,000 U/mL streptomycin 10,000 μg/mL (Invitrogen)+1.2 mg/mL Geneticin G418 (Invitrogen)) in […] cell bind flasks (Corning). The following steps were followed exactly as mentioned. The spent medium was discarded and the cells rinsed once with PBS-1×. Accutase® (1-2 mL; PAA) solution was added. The plate was placed on a 37° C. warming incubator 3-5 minutes. As soon as cells are detached, 37° C. complete medium (9 mL) was added. The cell suspension was drawn into a sterile pipette and cells homogenized gently to dissociate cell aggregates. The cells were counted using a hemocytometer with Blue Trypan and then centrifuged 5 minutes at 400 g. The cells can be amplified or maintained by seeding […] in a T75 flask (final volume: 15 mL). 8000 cells in 50 μL Growth medium was added to each well of 384-well, clear bottomed, sterile poly-D-lysine coated plates with lid (Greiner-bio one) inside the laminar air-flow. The plates were incubated at 37° C. and 5% CO2 in a CO2 incubator (Thermo) for 48 hours.
On the day of the assay, cells were washed with Assay buffer, which was prepared using the components and amounts in Table 4. The pH was adjusted to 7.4 with NaOH, volume made up to 500 mL with Milli-Q® water.
Assay Buffer was added to the cells and incubated at rt (25° C.) for 10 minutes. The compounds were diluted in assay buffer. The compounds were added and incubated at rt (25° C.) for 10 minutes. Red FMP Dye (MDC) was added to the cells and the plate was incubated at rt (25° C.) for 30 minutes. Veratridine stock (20 mM; Sigma) was prepared in DMSO; veratridine (final concentration of 30 μM) in assay buffer was added to each well of the cell seeded plates in the FLIPR® system and read taken for 10 minutes. Table 5 provides data illustrating the sodium channel activity of the test compounds in response to the presence or absence of heat stimulation in cells expressing hTRPV1. The compounds were tested for differential activity at 25° C. and 47° C. and at two test concentrations. Compounds showing the most promising profiles were further evaluated for IC50 in the 47° C. assay, examples are shown in Table 5.

[3] = system: Male Sprague Dawley (SD) rats; experiment: In vivo assay of mechanical nociception (rat pinch model, perisciatic injection); details: for Average Time of Analgesia: perisciatic; for duration of anti-nociception effect: 100 μL injection volume, 0.5% compound with 2% lidocaine (Table 8)
[4] = test compound 0.5%, lidocaine 2%, total injection 100 μL

| SMILES | hTRPV1-N1E Nav 0.1 mM (% inhibition) 25° C. [1] | hTRPV1-N1E Nav 0.1 mM (% inhibition) 47° C. [1] | hTRPV1-N1E Nav 1 mM (% inhibition) 25° C. [1] | IC50 [1] | IC50 ([2]; average, read-out: HEK Nav 1.5 IC50 (μM) (AVG)) | inhibition at 10 min, 0.5 mM ([2]; human, HEK-293 cells expressing human Nav1.5 (hNav1.5-HEK-293), pH 7.4, 0.5 mM, read-out: HEK Nav 1.5 % inh. @ 0.5 mM) | inhibition at 10 min, 1.5 mM ([2]; human, HEK-293 cells expressing human Nav1.5 (hNav1.5-HEK-293), pH 7.4, 1.5 mM, read-out: HEK Nav 1.5 % inh. @ 1.5 mM) | Average Time of Analgesia [3, 4] | hTRPV1-N1E Nav 1 mM (% inhibition) 47° C. [1] | duration of anti-nociception effect [3] | Average Time of Analgesia ([3]; test compound 0.25%, lidocaine 0%, total injection 200 μL) | Average Time of Analgesia ([3]; test compound 0.25%, lidocaine 1%, total injection 200 μL) | Average Time of Analgesia ([3]; test compound 0.5%, lidocaine 0%, total injection 200 μL) | Average Time of Analgesia ([3]; test compound 0.5%, lidocaine 2%, total injection 200 μL) |
| --- | --- | --- | --- | --- | --- | --- | --- | --- | --- | --- | --- | --- | --- | --- |
| CC[N+]1(CC)CCCC[C@@H]1CCN(c1ccccc1)C1Cc2ccccc2C1.[I-] [Example 11, (R)-1,1-Diethyl-2-[2-((indan-2-yl)(phenyl)amino)ethyl]piperidinium iodide] | 0% | 72% | 71 (N = 2) % | 10 to 100 µM | 44 µM | 97.9% | 97.8% | 7 h | – | – | – | – | – | – |
| CC[N+]1(CC)CCCCC1CCN(c1ccccc1F)C1Cc2ccccc2C1.[I-] (centres unmarked) [Example 16, 1,1-Diethyl-2-[2-((2-fluorophenyl)(indan-2-yl)amino)ethyl]piperidinium iodide] | 0% | 92.9 (N = 2) % | Insoluble | 10 to 100 µM | – | – | – | 6 h | Insoluble | up to 6 hours | – | – | – | – |
| CC[N+]1(CC)CCCCC1CCN(c1ccc(C)cc1)C1Cc2ccccc2C1.[I-] (centres unmarked) [Example 23, 1,1-Diethyl-2-[2-((indan-2-yl)(4-methylphenyl)amino)ethyl]piperidinium iodide] | 19.7% | 89.6 (N = 2) % | Insoluble | 1 to 10 µM | – | – | – | 2 h | Insoluble | – | – | – | – | – |
| Cc1ccccc1N(CCC1CCCC[N+]1(C)C)C1Cc2ccccc2C1.[I-] (centres unmarked) [Example 24, 1,1-dimethyl-2-[2-((indan-2-yl)(2-methylphenyl)amino)ethyl]piperidinium iodide] | 25.1% | 88.5 (N = 2) % | 57.9 (N = 2) % | 1 to 10 µM | – | – | – | 32 h | 84.2 (N = 2) % | up to 32 hours | 4 h | 24 h | 12 h | >168 h |
